Results from PMC12153356, “An antisense oligomer conjugate with unpredicted bactericidal activity against Fusobacterium nucleatum” (mBio, 2025).
Square brackets hold non-standard residues; d marks the D form. Peptide text beside a SMILES is read from it. Ahx = NCCCCCC(=O)O; βAla = NCCC(=O)O

What was measured:
[1] = test system: F. nucleatum subsp. nucleatum ATCC 23726 (FNN23); assay: Determination of bactericidal effect by CFU spot assay; type: cell-based, Fusobacterium nucleatum subsp. nucleatum ATCC 23726; conditions: 10 µM, 1 × 10^5 CFU/mL in MHB, spotting on BHI agar plates, up to 96 h, three replicates
Method: To investigate the bactericidal effects of PNAs an o.n. culture of FNN23 grown in ColB was diluted 1:50 in fresh ColB and grown to OD600 0.5. This culture was then diluted 1:2,500 to 1 × 10^5 CFU/mL in MHB, and 190 µL of the culture was dispensed into a transparent 96-well plate (Nunc, Thermo Fischer Scientific) together with 10 µL of respective 20× PNA stock or water and incubated at 37°C with 237 cpm shaking every 20 min. At the respective time points, 100 µL was taken out of the well, a 1:10 serial dilution series was prepared with 900 µL anoxic 1× PBS, and 5 µL of each dilution was spotted on BHI plates for CFU determination. Plates were incubated for 3 days at 37°C before taking out the plates of the anaerobic chamber for CFU counting.

HeLa cells = conditions: cited from earlier work
[2] = test system: F. nucleatum subsp. nucleatum ATCC 23726 (FNN23); assay: MIC determination and growth inhibition assay (broth microdilution, OD600 over time); type: cell-based, Fusobacterium nucleatum subsp. nucleatum ATCC 23726; conditions: MHB; for Growth inhibition of FNN23: 10 µM compound, 1 × 10^5 CFU/mL, growth inhibition = no visible growth (OD600 <0.01) after 120 h
Method: To test CPP-PNA conjugates for growth inhibition, we diluted mid-exponential phase cultures of FNN23 to 1 × 10^5 colony forming units (CFUs) per milliliter in Mueller-Hinton Broth (MHB) and incubated the diluted bacteria with 10 µM of either (KFF)3K- or (RXR)4XB- conjugated PNAs targeting acpP, ftsZ or gyrA. Growth was monitored over time by OD600 measurements, with growth inhibition defined as no visible growth (OD600 <0.01) after 120 h. […] Based on these findings, we conclude that CPP-PNAs targeting fusobacterial mRNAs are not effective in antisense inhibition.
(§1) The following fusobacterial strains were used in this study: Fusobacterium nucleatum subsp. nucleatum ATCC 23726 (FNN23) acquired from the American Type Culture Collection (ATCC), F. nucleatum subsp. nucleatum ATCC 25586 (FNN25), F. nucleatum subsp. vincentii ATCC 49256 (FNV), and F. nucleatum subsp. polymorphum ATCC 10953 (FNP) acquired from the German Collection of Microorganisms and Cell Culture (DSMZ), F. nucleatum subsp. animalis 7_1 (FNA) and F. periodonticum 2_1_31 (FPE) both received as a kind gift from E. Allen-Vercoe (University of Guelph, Canada). All strains were routinely grown at 37°C in 80:10:10 (N2:H2:CO2) anaerobic conditions on 2% agar supplemented BHI plates (BHI, 1% [wt:vol] dried yeast extract, 1% [vol:vol] 50% sterile-filtered glucose solution, 5 µg/mL of hemin; 1% [vol:vol] fetal bovine serum) from frozen 20% glycerol stocks kept at −80°C. For liquid growth, the strains were cultured in Columbia broth (ColB; BD Difco). Precultures were prepared 24 h before inoculating the working culture at a 1:50 dilution in fresh ColB until OD600 0.5 was reached. Cultures were then diluted in non-cation adjusted Mueller-Hinton Broth (MHB, BD Difco) to the desired CFU/mL number. P. gingivalis (DSM 20709) was purchased from DSMZ and grown at 37°C in anaerobic conditions as mentioned above on 2% agar supplemented BHI+ plates (BHI, 1% [wt:vol] dried yeast extract, 1% [vol:vol] 50% sterile filtered glucose solution, 5 µg/ml of hemin; 10% [vol:vol] fetal bovine serum; and 1 µg/mL vitamin K3) for 4 days. For liquid growth, P. gingivalis was cultured in BHI+ medium (BHI, BD Difco supplemented with 1% [vol:vol] 50% sterile-filtered glucose solution, 5 µg/mL of hemin; 1% [vol:vol] fetal bovine serum, and 1 µg/mL vitamin K3). Precultures were prepared 24 h before inoculating the working culture at a 1:20 dilution in BHI+ until OD600 of 0.5 was reached. All plates, media, buffers, and reagents were brought into the anaerobic chamber the day before usage to ensure full oxygen depletion.
To determine the MIC value, broth microdilutions were performed according to the standard protocol with some modifications ([119]). An overnight bacterial culture was diluted in a fresh ColB medium and grown to OD600 0.5 (mid-exponential phase). […] To determine the growth inhibition of P. gingivalis, an o.n. culture grown in BHI+ was diluted 1:1,500 in MHB to obtain 1 × 10^5 CFU/mL. E. coli K12, E. coli Nissle 1917, and S. enterica o.n. cultures grown in MHB were diluted 1:1,800 in fresh MHB to obtain 1 × 10^5 CFU/mL. In total, 190 µL of diluted bacterial cultures were pipetted into a transparent 96-well plate (Nunc, Thermo Fischer Scientific) together with 10 µL of respective 20× CPP or CPP-PNA stock or water as control. Bacterial growth was monitored by measuring OD600 every 20 min with constant shaking in a plate reader (Biotek) under the normal atmospheric environment or positioned in the anaerobic chamber with double orbital shaking every 20 min prior to each measurement with 237 cpm at 37°C for 120 h.

[3] = test system: F. nucleatum subsp. nucleatum ATCC 25586 (FNN25); assay: Growth inhibition assay; type: cell-based, Fusobacterium nucleatum subsp. nucleatum ATCC 25586; conditions: 10 µM, MHB, 1 × 10^5 CFU/mL input, three replicates; listed as sequence variant 1
Description: as §1, with “For liquid growth, P. gingivalis was cultured in BHI+ medium (BHI, BD Difco supplemented with 1% [vol:vol] 50% sterile-filtered glucose solution, 5 µg/mL of hemin; 1% [vol:vol] fetal bovine serum, and 1 µg/mL vitamin K3). Precultures were prepared 24 h before inoculating the working culture at a 1:20 dilution in BHI+ until OD600 of 0.5 was reached. All plates, media, buffers, and reagents were brought into the anaerobic chamber the day before usage to ensure full oxygen depletion.” left out
(§2) To determine the MIC value, broth microdilutions were performed according to the standard protocol with some modifications ([119]). […] Bacterial growth was monitored by measuring OD600 every 20 min with constant shaking in a plate reader (Biotek) under the normal atmospheric environment or positioned in the anaerobic chamber with double orbital shaking every 20 min prior to each measurement with 237 cpm at 37°C for 120 h.

[4] = test system: F. nucleatum subsp. polymorphum ATCC 10953 (FNP); assay: Growth inhibition assay; type: cell-based, Fusobacterium nucleatum subsp. polymorphum ATCC 10953; conditions: 10 µM, MHB, 1 × 10^5 CFU/mL input, three replicates; listed as sequence variant 1
Description: as §1, with “For liquid growth, P. gingivalis was cultured in BHI+ medium (BHI, BD Difco supplemented with 1% [vol:vol] 50% sterile-filtered glucose solution, 5 µg/mL of hemin; 1% [vol:vol] fetal bovine serum, and 1 µg/mL vitamin K3). Precultures were prepared 24 h before inoculating the working culture at a 1:20 dilution in BHI+ until OD600 of 0.5 was reached. All plates, media, buffers, and reagents were brought into the anaerobic chamber the day before usage to ensure full oxygen depletion.” left out
as §2

[5] = test system: F. nucleatum subsp. animalis 7_1 (FNA); assay: Growth inhibition assay; type: cell-based, Fusobacterium nucleatum subsp. animalis 7_1; conditions: 10 µM, MHB, 1 × 10^5 CFU/mL input, three replicates; listed as sequence variant 1
Description: as §1, with “For liquid growth, P. gingivalis was cultured in BHI+ medium (BHI, BD Difco supplemented with 1% [vol:vol] 50% sterile-filtered glucose solution, 5 µg/mL of hemin; 1% [vol:vol] fetal bovine serum, and 1 µg/mL vitamin K3). Precultures were prepared 24 h before inoculating the working culture at a 1:20 dilution in BHI+ until OD600 of 0.5 was reached. All plates, media, buffers, and reagents were brought into the anaerobic chamber the day before usage to ensure full oxygen depletion.” left out
as §2

[6] = test system: F. periodonticum 2_1_31 (FPE); assay: Growth inhibition assay; type: cell-based, Fusobacterium periodonticum 2_1_31; conditions: 10 µM, MHB, 1 × 10^5 CFU/mL input, three replicates; listed as sequence variant 1
Description: as §1, with “For liquid growth, P. gingivalis was cultured in BHI+ medium (BHI, BD Difco supplemented with 1% [vol:vol] 50% sterile-filtered glucose solution, 5 µg/mL of hemin; 1% [vol:vol] fetal bovine serum, and 1 µg/mL vitamin K3). Precultures were prepared 24 h before inoculating the working culture at a 1:20 dilution in BHI+ until OD600 of 0.5 was reached. All plates, media, buffers, and reagents were brought into the anaerobic chamber the day before usage to ensure full oxygen depletion.” left out
as §2

Compound: N=C(N)NCCC[C@H](NC(=O)CCCCCNC(=O)[C@H](CCCNC(=N)N)NC(=O)[C@H](CCCNC(=N)N)NC(=O)CCCCCNC(=O)[C@H](CCCNC(=N)N)NC(=O)[C@H](CCCNC(=N)N)NC(=O)CCCCCNC(=O)[C@H](CCCNC(=N)N)NC(=O)[C@H](CCCNC(=N)N)NC(=O)CCCCCNC(=O)[C@@H](N)CCCNC(=N)N)C(=O)NCCCCCC(=O)NCCC(=O)O [(RXR)4XB, reference compound] (H-R[Ahx]RR[Ahx]RR[Ahx]RR[Ahx]R[Ahx][βAla]-OH; N-terminus and C-terminus assumed)
- Bactericidal effect (viable cells, CFU) on FNN23 [1]: no bactericidal effect

Compound: CC[C@H](C)[C@H](NC(=O)[C@H](CCCNC(=N)N)NC(=O)[C@H](CCCNC(=N)N)NC(=O)[C@H](CC(C)C)NC(=O)[C@H](Cc1c[nH]c2ccccc12)NC(=O)[C@H](C)NC(=O)[C@H](CCCCN)NC(=O)[C@@H](NC(=O)[C@H](CCCNC(=N)N)NC(=O)[C@H](CCCNC(=N)N)NC(=O)[C@H](CC(C)C)NC(=O)[C@@H](N)Cc1c[nH]c2ccccc12)[C@@H](C)CC)C(=O)N[C@@H](CCCCN)C(=O)N[C@@H](C)C(=O)N[C@@H](CC(C)C)C(=O)N[C@@H](CC(N)=O)C(=O)N[C@@H](CCCNC(=N)N)C(=O)N[C@@H](CCC(N)=O)C(=O)N[C@@H](CC(C)C)C(=O)NCC(=O)N[C@H](C(=O)N[C@@H](C)C(=O)N[C@@H](C)C(=O)O)C(C)C [Seq471]
- Cytotoxicity in HeLa cells (HeLa cells): without notable cytotoxicity

Compound: GACATAATTGT [PNA79, FUS79 without the (RXR)4XB module, PNA …]
- Growth inhibition of FNN23 [2]: only the original FUS79 as well as sequence variant 1 conjugated to full-length (RXR)4XB inhibited the growth

Compound: KFFKFFKFFK (GACATAATTGT; all phosphorodiamidate morpholino (PMO); (KFF)3K peptide conjugated via azide-cyclooctyne click, attachment end not given here) [(KFF)3K-PMO79, (KFF)3K conjugated to 11mer PMO …]
- Growth inhibition of FNN23 [2]: did not inhibit the growth

Compound: KFFKFFKFFK [(KFF)3K-gyrA_11mer_2, (KFF)3K conjugated to 11mer PNA … targeting gyrA]
- Growth delay of FNN23 ([2]; 10 µM (KFF)3K-PNA, 1 × 10^5 CFU/mL (Fig. 2C)): ~ 40 h
- Growth retardation of FNN23 at higher concentrations ([2]; concentrations higher than 10 µM, 1 x 10^5 CFU per ml (Fig. S1C)): did not lead to further growth retardation

Compound: Polymyxin B [reference compound]
- Bactericidal effect (viable cells, CFU) on FNN23 [1]: fully diminished CFUs after 96 h

Compound: RXRRXRRXRRXRXB [(RXR)4XB-ftsZ, (RXR)4XB conjugated to 10mer PNA … targeting ftsZ]
- Bactericidal effect (viable cells, CFU) on FNN23 ([1]; listed as (RXR)4XB-PNA targeting ftsZ): could not observe a CFU reduction

Compound: RXRRXRRXRRXRXB [(RXR)4XB-non-targeting-PMO, (RXR)4XB conjugated to non-targeting 11mer PMO …]
- Growth inhibition of FNN23 ([2]; listed as (RXR)4XB-conjugated non-targeting PMO control): did not inhibit the growth

Compound: RXRRXRRXRRXRXB [(RXR)4XB-trpB, (RXR)4XB conjugated to 11mer PNA … complementary to trpB TIR]
- Growth inhibition of FNN23 [2]: did not result in growth impairment

Compound: RXRRXRRXRRXRXB [FUS79 variant 1]
- Growth inhibition of FNN25 [3]: effective in strains susceptible to FUS79
- Growth inhibition of FNN23 ([2]; listed as sequence variant 1): inhibited the growth
- Growth inhibition of FNP [4]: effective in strains susceptible to FUS79
- Growth inhibition of FNA [5]: effective in strains susceptible to FUS79
- Growth inhibition of FPE [6]: effective in strains susceptible to FUS79

Compound: RXRRXRRXRXB [(RXR)3XB-PNA79, PNA … with shortened CPP module RXRRXRRXRXB]
- Growth inhibition of FNN23 [2]: only the original FUS79 as well as sequence variant 1 conjugated to full-length (RXR)4XB inhibited the growth
